The assay relates to breast cancer cell line MX-1. Kind of assay: MX-1 cell line proliferation assay, Method A. The format is cell-based. The following applies: Homo sapiens, MX1; MX-1 cells, 96-well, 72 hours, Cell Titer Glo; read-out: Cellular proliferation: EC50 Method A. The procedure:
The impact of compounds of the Examples on cancer cell proliferation was determined using the breast cancer cell line MX-1 (ATCC) in a 3-day proliferation assay and the data are reported in Table 1.
MX-1 cells were maintained in RPMI 1640 medium (Sigma) supplemented with 10% FBS at 37° C. and an atmosphere of 5% CO2. For compound testing, MX-1 cells were plated in 96-well black bottom plates at a density of 5000 cells/well in 90 μL of culture media and incubated at 370 overnight to allow cell adhesion and spreading. Compound dilution series were prepared in DMSO via a 3-fold serial dilution from 3 mM to 0.1 μM. The DMSO dilution series were then diluted 1:100 in phosphate buffered saline, and 10 μL of the resulted solution were added to the appropriate wells of the MX-1 cell plate. The final compound concentrations in the wells were 3, 1, 0.3, 0.1, 0.03, 0.01, 0.003, 0.001, 0.0003 and 0.0001 μM.
Luminescence readings from the Cell Titer Glo assay were normalized to the DMSO treated cells and analyzed using the GraphPad Prism software with sigmoidal curve fitting to obtain ECs50s. The minimum significant ratio (MSR) was determined to evaluate assay reproducibility (Eastwood et al., (2006) J Biomol Screen, 11: 253-261).
Background: Cellular ATP, detected with luciferase, serves as a proxy for viable cell number.

As for `CC(=O)N1CCN(C(=O)c2cccc(Oc3ccc(S(C)(=O)=O)cc3-c3cn(C)c(=O)c4[nH]ccc34)c2)CC1` [Example 30, 4-[2-{3-[(4-acetylpiperazin-1-yl)carbonyl]phenoxy}-5-(methylsulfonyl)phenyl]-6-methyl-1,6-dihydro-7H-pyrrolo[2,3-c]pyridin-7-one], the EC50 was above 1000 nM. On to `Cn1cc(-c2cc(S(C)(=O)=O)ccc2Oc2cccc(C(=O)N3CCC(C(F)(F)F)CC3)c2)c2cc[nH]c2c1=O` [Example 31, 6-methyl-4-[5-(methylsulfonyl)-2-(3-{[4-(trifluoromethyl)piperidin-1-yl]carbonyl}phenoxy)phenyl]-1,6-dihydro-7H-pyrrolo[2,3-c]pyridin-7-one], for which the EC50 worked out at 443 nM. The result for `CN(C)CCNC(=O)c1cccc(Oc2ccc(S(C)(=O)=O)cc2-c2cn(C)c(=O)c3[nH]ccc23)c1` [Example 33, N-[2-(dimethylamino)ethyl]-3-[2-(6-methyl-7-oxo-6,7-dihydro-1H-pyrrolo[2,3-c]pyridin-4-yl)-4-(methylsulfonyl)phenoxy]benzamide] reads above 1000 nM; that for `Cn1cc(-c2cc(S(C)(=O)=O)ccc2Oc2cccc(C(=O)NC[C@H]3CCCO3)c2)c2cc[nH]c2c1=O` [Example 34, 3-[2-(6-methyl-7-oxo-6,7-dihydro-1H-pyrrolo[2,3-c]pyridin-4-yl)-4-(methylsulfonyl)phenoxy]-N-[(2R)-tetrahydrofuran-2-ylmethyl]benzamide], 155 nM; that for `Cn1cc(-c2cc(S(C)(=O)=O)ccc2Oc2cccc(C(=O)NCCN3CCCC3)c2)c2cc[nH]c2c1=O` [Example 35, 3-[2-(6-methyl-7-oxo-6,7-dihydro-1H-pyrrolo[2,3-c]pyridin-4-yl)-4-(methylsulfonyl)phenoxy]-N-[2-(pyrrolidin-1-yl)ethyl]benzamide], 406 nM. For the compound `Cn1cc(-c2cc(S(C)(=O)=O)ccc2Oc2cccc(C(=O)NCc3cc(F)cc(F)c3)c2)c2cc[nH]c2c1=O` [Example 36, N-(3,5-difluorobenzyl)-3-[2-(6-methyl-7-oxo-6,7-dihydro-1H-pyrrolo[2,3-c]pyridin-4-yl)-4-(methylsulfonyl)phenoxy]benzamide], the EC50 amounted to 255 nM. The result for `Cn1cc(-c2cc(S(C)(=O)=O)ccc2Oc2cccc(NS(=O)(=O)Cc3ccccc3)c2)c2cc[nH]c2c1=O` [Example 38, N-{3-[2-(6-methyl-7-oxo-6,7-dihydro-1H-pyrrolo[2,3-c]pyridin-4-yl)-4-(methylsulfonyl)phenoxy]phenyl}-1-phenylmethanesulfonamide] reads 103 nM; that for `COc1ccc(S(=O)(=O)Nc2cccc(Oc3ccc(S(C)(=O)=O)cc3-c3cn(C)c(=O)c4[nH]ccc34)c2)cc1` [Example 39, 4-methoxy-N-{3-[2-(6-methyl-7-oxo-6,7-dihydro-1H-pyrrolo[2,3-c]pyridin-4-yl)-4-(methylsulfonyl)phenoxy]phenyl}benzenesulfonamide], 97.4 nM. As for `Cn1cc(-c2cc(S(C)(=O)=O)ccc2Oc2cccc(NS(=O)(=O)c3cccc(F)c3)c2)c2cc[nH]c2c1=O` [Example 40, 3-fluoro-N-{3-[2-(6-methyl-7-oxo-6,7-dihydro-1H-pyrrolo[2,3-c]pyridin-4-yl)-4-(methylsulfonyl)phenoxy]phenyl}benzenesulfonamide], the figure is 143 nM; as for `COc1cccc(S(=O)(=O)Nc2cccc(Oc3ccc(S(C)(=O)=O)cc3-c3cn(C)c(=O)c4[nH]ccc34)c2)c1` [Example 42, 3-methoxy-N-{3-[2-(6-methyl-7-oxo-6,7-dihydro-1H-pyrrolo[2,3-c]pyridin-4-yl)-4-(methylsulfonyl)phenoxy]phenyl}benzenesulfonamide], 157 nM; as for `Cn1cc(-c2cc(S(C)(=O)=O)ccc2Oc2cccc(NS(=O)(=O)c3ccc([N+](=O)[O-])cc3)c2)c2cc[nH]c2c1=O` [Example 43, N-{3-[2-(6-methyl-7-oxo-6,7-dihydro-1H-pyrrolo[2,3-c]pyridin-4-yl)-4-(methylsulfonyl)phenoxy]phenyl}-4-nitrobenzenesulfonamide], 451 nM. In the case of `CC(=O)c1ccc(S(=O)(=O)Nc2cccc(Oc3ccc(S(C)(=O)=O)cc3-c3cn(C)c(=O)c4[nH]ccc34)c2)cc1` [Example 44, 4-acetyl-N-{3-[2-(6-methyl-7-oxo-6,7-dihydro-1H-pyrrolo[2,3-c]pyridin-4-yl)-4-(methylsulfonyl)phenoxy]phenyl}benzenesulfonamide], the EC50 was determined as 391 nM. As for `CC(C)c1ccc(S(=O)(=O)Nc2cccc(Oc3ccc(S(C)(=O)=O)cc3-c3cn(C)c(=O)c4[nH]ccc34)c2)cc1` [Example 46, N-{3-[2-(6-methyl-7-oxo-6,7-dihydro-1H-pyrrolo[2,3-c]pyridin-4-yl)-4-(methylsulfonyl)phenoxy]phenyl}-4-(propan-2-yl)benzenesulfonamide], the figure is 43.1 nM. The result for `Cn1cc(-c2cc(S(C)(=O)=O)ccc2Oc2cccc(NS(=O)(=O)c3cccc(OC(F)F)c3)c2)c2cc[nH]c2c1=O` [Example 48, 3-(difluoromethoxy)-N-{3-[2-(6-methyl-7-oxo-6,7-dihydro-1H-pyrrolo[2,3-c]pyridin-4-yl)-4-(methylsulfonyl)phenoxy]phenyl}benzenesulfonamide] reads 172 nM. As for `Cn1cc(-c2cc(S(C)(=O)=O)ccc2Oc2cccc(NS(=O)(=O)C3CC3)c2)c2cc[nH]c2c1=O` [Example 49, N-{3-[2-(6-methyl-7-oxo-6,7-dihydro-1H-pyrrolo[2,3-c]pyridin-4-yl)-4-(methylsulfonyl)phenoxy]phenyl}cyclopropanesulfonamide], the figure is 73.8 nM. As for `Cc1cccc(S(=O)(=O)Nc2cccc(Oc3ccc(S(C)(=O)=O)cc3-c3cn(C)c(=O)c4[nH]ccc34)c2)c1` [Example 50, 3-methyl-N-{3-[2-(6-methyl-7-oxo-6,7-dihydro-1H-pyrrolo[2,3-c]pyridin-4-yl)-4-(methylsulfonyl)phenoxy]phenyl}benzenesulfonamide], the EC50 is 40.5 nM. As for `Cn1cc(-c2cc(S(C)(=O)=O)ccc2Oc2cccc(NS(=O)(=O)c3cccc([N+](=O)[O-])c3)c2)c2cc[nH]c2c1=O` [Example 51, N-{3-[2-(6-methyl-7-oxo-6,7-dihydro-1H-pyrrolo[2,3-c]pyridin-4-yl)-4-(methylsulfonyl)phenoxy]phenyl}-3-nitrobenzenesulfonamide], the figure is above 1000 nM. The result for `Cc1cc(F)ccc1S(=O)(=O)Nc1cccc(Oc2ccc(S(C)(=O)=O)cc2-c2cn(C)c(=O)c3[nH]ccc23)c1` [Example 52, 4-fluoro-2-methyl-N-{3-[2-(6-methyl-7-oxo-6,7-dihydro-1H-pyrrolo[2,3-c]pyridin-4-yl)-4-(methylsulfonyl)phenoxy]phenyl}benzenesulfonamide] reads 38.6 nM; that for `Cn1cc(-c2cc(S(C)(=O)=O)ccc2Oc2cccc(NS(=O)(=O)c3ccc(S(C)(=O)=O)cc3)c2)c2cc[nH]c2c1=O` [Example 54, N-{3-[2-(6-methyl-7-oxo-6,7-dihydro-1H-pyrrolo[2,3-c]pyridin-4-yl)-4-(methylsulfonyl)phenoxy]phenyl}-4-(methylsulfonyl)benzenesulfonamide], above 1000 nM; that for `Cn1cc(-c2cc(S(C)(=O)=O)ccc2Oc2cccc(NS(=O)(=O)c3ccccc3C#N)c2)c2cc[nH]c2c1=O` [Example 55, 2-cyano-N-{3-[2-(6-methyl-7-oxo-6,7-dihydro-1H-pyrrolo[2,3-c]pyridin-4-yl)-4-(methylsulfonyl)phenoxy]phenyl}benzenesulfonamide], 393 nM. Take `Cn1cc(-c2cc(S(C)(=O)=O)ccc2Oc2cccc(NS(=O)(=O)c3cccc(C#N)c3)c2)c2cc[nH]c2c1=O` [Example 57, 3-cyano-N-{3-[2-(6-methyl-7-oxo-6,7-dihydro-1H-pyrrolo[2,3-c]pyridin-4-yl)-4-(methylsulfonyl)phenoxy]phenyl}benzenesulfonamide]: the EC50 was above 1000 nM. As for `Cn1cc(-c2cc(S(C)(=O)=O)ccc2Oc2cccc(NS(=O)(=O)c3ccc(F)cc3Cl)c2)c2cc[nH]c2c1=O` [Example 58], the figure is 152 nM. The result for `Cn1cc(-c2cc(S(C)(=O)=O)ccc2Oc2cccc(NCc3cccc(C#N)c3)c2)c2cc[nH]c2c1=O` [Example 60, 3-[({3-[2-(6-methyl-7-oxo-6,7-dihydro-1H-pyrrolo[2,3-c]pyridin-4-yl)-4-(methylsulfonyl)phenoxy]phenyl}amino)methyl]benzonitrile] reads 64.1 nM; that for `Cn1cc(-c2cc(S(C)(=O)=O)ccc2Oc2cccc(NCc3ccc(C#N)cc3)c2)c2cc[nH]c2c1=O` [Example 61, 4-[({3-[2-(6-methyl-7-oxo-6,7-dihydro-1H-pyrrolo[2,3-c]pyridin-4-yl)-4-(methylsulfonyl)phenoxy]phenyl}amino)methyl]benzonitrile], 43 nM; that for `Cn1cc(-c2cc(S(C)(=O)=O)ccc2Oc2cccc(NCc3ccc(F)cc3)c2)c2cc[nH]c2c1=O` [Example 62, 4-[2-{3-[(4-fluorobenzyl)amino]phenoxy}-5-(methylsulfonyl)phenyl]-6-methyl-1,6-dihydro-7H-pyrrolo[2,3-c]pyridin-7-one], 51.1 nM. With `COCCNc1cccc(Oc2ccc(S(C)(=O)=O)cc2-c2cn(C)c(=O)c3[nH]ccc23)c1` [Example 64, 4-[2-{3-[(2-methoxyethyl)amino]phenoxy}-5-(methylsulfonyl)phenyl]-6-methyl-1,6-dihydro-7H-pyrrolo[2,3-c]pyridin-7-one], the EC50 worked out at 52.6 nM.
